Assays:
[1] = tested on: post-menopausal women; assay: GSM symptom: vaginal pain associated with sexual activity; assay type: in vivo
Procedure: Change from baseline to week 12 in the following GSM symptoms (VVA subject self-assessment) were recorded: • a) Vaginal dryness (sensation of dryness or burning in the vagina; none=0 mild=1, moderate=2 or severe=3):
• d) Vaginal pain associated with sexual activity (sensation of pain with sexual intercourse none=0, mild=1, moderate=2 or severe=3): […]

[2] = tested on: C-terminal telopeptide (CTX-1); assay: C-terminal telopeptide (CTX-1), marker of bone resorption; assay type: in vivo
[3] = tested on: post-menopausal women; assay: Adverse events (AEs, TEAEs) in the dose-finding study; assay type: in vivo
Source text: This is confirmed by the following statistical analysis. Using a Poisson regression model with a random effect for the patient and treatment group as a covariate to model the count of TEAEs in the different treatment groups, it can be shown that there is no statistical difference between the treatment groups (p value of 0.099). Second, a chi-square test was used to assess if the prevalence of patients reporting TEAEs in each treatment group was similar. No statistical difference was found between the treatment groups (p value of 0.575).

[4] = tested on: post-menopausal women; assay: GSM symptom (VVA self-assessment): vaginal dryness; assay type: in vivo
Procedure: Change from baseline to week 12 in the following GSM symptoms (VVA subject self-assessment) were recorded: • a) Vaginal dryness (sensation of dryness or burning in the vagina; none=0 mild=1, moderate=2 or severe=3): […]

[5] = tested on: postmenopausal women; conditions: 2 mg estetrol per day for 28 days; cited from earlier work
[6] = tested on: post-menopausal women; assay: Dose-finding study: hot flush weekly weighted score; assay type: in vivo; conditions: 10 mg per day
Procedure: Further, the terms “Hot Flush Weekly Weighted Score”, as used herein, corresponds to a score taking into account frequency and severity which is calculated by using the severity score (as calculated above): [(1×No. of mild VMS)+(2×No. of moderate VMS)+(3×No. of severe VMS)] during a 7 day period.
Such a weighted score was for example used by Notelovitz et al. (“Initial 17β-Estradiol Dose for Treating Vasomotor Symptoms”; Obstetrics and Gynaecology, Vol. 95(5), May 2000, p. 726-731). This score was used to generate the data included in Example 1 further below, under section A. c) “Hot Flush Weekly Weighted Score”.

## C[C@]12CC[C@@H]3c4ccc(O)cc4CC[C@H]3[C@@H]1[C@@H](O)[C@@H](O)[C@@H]2O [Estetrol, 1,3,5 (10)-estratrien-3,15alpha,16alpha,17beta-tetrol]
[1]; E4 2.5 mg, Baseline
  Vaginal pain associated with sexual activity score (none=0 to severe=3), mean ± SD: 0.6 ± 0.77
[1]; E4 2.5 mg, Week 12
  Vaginal pain associated with sexual activity score (none=0 to severe=3), mean ± SD: 0.3 ± 0.73
[1]; E4 5 mg, Baseline
  Vaginal pain associated with sexual activity score (none=0 to severe=3), mean ± SD: 1 ± 1.07
[1]; E4 5 mg, Week 12
  Vaginal pain associated with sexual activity score (none=0 to severe=3), mean ± SD: 0.5 ± 0.78
[1]; E4 10 mg, Baseline
  Vaginal pain associated with sexual activity score (none=0 to severe=3), mean ± SD: 0.6 ± 0.77
[1]; E4 10 mg, Week 12
  Vaginal pain associated with sexual activity score (none=0 to severe=3), mean ± SD: 0.2 ± 0.36
[1]; E4 15 mg, Baseline
  Vaginal pain associated with sexual activity score (none=0 to severe=3), mean ± SD: 0.7 ± 0.90
[1]; E4 15 mg, Week 12
  Vaginal pain associated with sexual activity score (none=0 to severe=3), mean ± SD: 0.3 ± 0.54
[2]; 20 mg daily dose, after 28 days of treatment
  Bone resorption (CTX-1), decrease compared with 15 mg daily dose: more pronounced
[2]; E4 15 mg daily
  C-Terminal Telopeptide (CTX-1), Baseline, Mean: 416.0 ng/L
  C-Terminal Telopeptide (CTX-1), Baseline, Median: 339.0 ng/L
[2]; E4 15 mg daily, after 12 weeks
  C-Terminal Telopeptide (CTX-1), End Of Treatment Actual Change from Baseline, Mean: -95.0 ng/L
  C-Terminal Telopeptide (CTX-1), End Of Treatment Actual Change from Baseline, Median: -142.5 ng/L
  C-Terminal Telopeptide (CTX-1), End Of Treatment Actual Value, Mean: 320.9 ng/L
  C-Terminal Telopeptide (CTX-1), End Of Treatment Actual Value, Median: 197.5 ng/L
[2]; E4 20 mg daily
  C-Terminal Telopeptide (CTX-1), Baseline, Mean: 422.50 ng/L
  C-Terminal Telopeptide (CTX-1), Baseline, Median: 416.5 ng/L
[2]; E4 20 mg daily, after 28 days
  C-Terminal Telopeptide (CTX-1), End Of Treatment Actual Change from Baseline, Mean: -147.60 ng/L
  C-Terminal Telopeptide (CTX-1), End Of Treatment Actual Change from Baseline, Median: -138.0 ng/L
  C-Terminal Telopeptide (CTX-1), End Of Treatment Actual Value, Mean: 274.9 ng/L
  C-Terminal Telopeptide (CTX-1), End Of Treatment Actual Value, Median: 267.50 ng/L
[3]; 2.5 mg group
  Percentage of patients with TEAE leading to Study Discontinuation: 1.9%
  Percentage of patients with severe TEAE: 7.7%
[3]; 5 mg group
  Percentage of patients with TEAE leading to Study Discontinuation: 6.4%
  Percentage of patients with severe TEAE: 10.6%
[3]; 10 mg group
  Average AEs per patient (patients who had AEs): 3.2
  Percentage of patients with TEAE leading to Study Discontinuation: 5.6%
  Percentage of patients with severe TEAE: 7.4%
[3]; 15 mg group
  Average AEs per patient (patients who had AEs): 2.6
  Percentage of patients with TEAE leading to Study Discontinuation: 4.1%
  Percentage of patients with severe TEAE: 6.1%
[4]; E4 2.5 mg, Baseline
  Vaginal dryness score (none=0 to severe=3), mean ± SD: 1 ± 0.90
[4]; E4 2.5 mg, Week 12
  Vaginal dryness score (none=0 to severe=3), mean ± SD: 0.5 ± 0.77
[4]; E4 5 mg, Baseline
  Vaginal dryness score (none=0 to severe=3), mean ± SD: 1.3 ± 0.94
[4]; E4 5 mg, Week 12
  Vaginal dryness score (none=0 to severe=3), mean ± SD: 0.7 ± 0.86
[4]; E4 10 mg, Baseline
  Vaginal dryness score (none=0 to severe=3), mean ± SD: 1 ± 0.93
[4]; E4 10 mg, Week 12
  Vaginal dryness score (none=0 to severe=3), mean ± SD: 0.5 ± 0.75
[4]; E4 15 mg, Baseline
  Vaginal dryness score (none=0 to severe=3), mean ± SD: 1.1 ± 1.04
[4]; E4 15 mg, Week 12
  Vaginal dryness score (none=0 to severe=3), mean ± SD: 0.5 ± 0.68
[5]
  Mean number of hot flushes and sweating: decrease
[6]; week 0
  Relative change (% from baseline) in hot flush weekly weighted score, mean: 0%
  Relative change (% from baseline) in hot flush weekly weighted score, mean (section B analysis): 0%
[6]; week 1
  Relative change (% from baseline) in hot flush weekly weighted score, mean (section B analysis): −20%

Source: patent publication US12458651B2, “Compounds and their uses for alleviating menopause-associated symptoms” (ESTETRA SRL, priority 2018, dated 2025)
